Entries after “also recorded” stand apart in the source; their conditions may differ.

One series deals with DNA. Particulars: pro-oxidant potential; cited from earlier work.
In series [1] the test system is human erythrocytes and human cataractous lenses. Particulars: cited from earlier work.
Another series deals with aortic rings. Nature of the series: Rat aortic thoracic rings: acetylcholine relaxation after phenylephrine contraction, 4-week oral treatment. Format: in vivo, alloxan-diabetic male Wistar rats. Particulars: chronic oral administration, acetylcholine 10^-7 M, FIG. 3. The method, then: Male Wistar rats, weighing between 230-250 g, fed regular chow, with free access to water were separated in four groups (n=10/each). The first two groups, termed normoglycemic, were treated with saline (0.1 mL/100 g/12 h) by the oral route (intragastric gavage) or untreated for four weeks. The second two groups, hyperglycemic, were treated with saline (0.1 mL/100 g/12 h) or treated with D-chiro-inositol (20 mg/kg/12 h) under the same protocol. […] Diabetes was induced by a single intravenous injection of 45 mg/kg alloxan as described by Sannomiya et al., 1997 ( ). Diabetes was diagnosed 96 h after injection by blood glucose assay >200 mg/dL. All protocols were approved by the local committee and follow the Guide for the Care and Use of Laboratory Animals published by the US National Institutes of Health (NIH Publication No. 85-23, revised 1996). After completion of blood pressure measurements and vascular mesenteric bed collection, animals were sacrificed by exsanguination while under anesthesia. The thoracic aorta was excised and rapidly cleansed of connective tissue in Petri dishes containing warmed and gassed (95% O2 in 5% CO2) Krebs-Henseleit solution (KHS). The aorta segment was cut in small rings (≈5 mm) and mounted horizontally in 5 mL chambers for isometric recording of tension. The resting tension was adjusted to 1 g and the tissue allowed to equilibrate for 1 hour with a 15 min washout period. Tissues were kept in KHS at 37° C., gassed with the O2, CO2 mixture and isometric recordings made with a force displacement transducer connected to a four-channel polygraph (Narco Biosystems, Houston, Tex., USA). After the equilibration period, tissues were contracted with a submaximal concentration of phenylephrine (≈60% maximal response) until two similar responses were obtained in order to ensure reproducibility of the contraction curves. […] The acetylcholine dose response curve was repeated after a 60 min washout interval. All experiments were performed in the presence of indomethecin (10 μM) and guanethidine (10 μM) to prevent the production of vasoactive prostanoids. At least 6 separate experiments will be performed each in duplicate.

Another series deals with vascular mesenteric bed. Nature of the series: Rat arteriolar mesenteric bed: acetylcholine-evoked decrease in perfusion pressure after 4-week oral treatment. Format: in vivo, alloxan-diabetic male Wistar rats. Conditions: chronic (4-week) oral administration, highest acetyl choline concentrations, FIG. 4. The protocol: Male Wistar rats, weighing between 230-250 g, fed regular chow, with free access to water were separated in four groups (n=10/each). The first two groups, termed normoglycemic, were treated with saline (0.1 mL/100 g/12 h) by the oral route (intragastric gavage) or untreated for four weeks. The second two groups, hyperglycemic, were treated with saline (0.1 mL/100 g/12 h) or treated with D-chiro-inositol (20 mg/kg/12 h) under the same protocol. […] Diabetes was induced by a single intravenous injection of 45 mg/kg alloxan as described by Sannomiya et al., 1997 ( ). Diabetes was diagnosed 96 h after injection by blood glucose assay >200 mg/dL. All protocols were approved by the local committee and follow the Guide for the Care and Use of Laboratory Animals published by the US National Institutes of Health (NIH Publication No. 85-23, revised 1996).
The mesentery was carefully removed by cutting close to the intestinal border with a small scissors. […] The vascular bed was rapidly perfused with warm KHS (37° C.; pH 7.4; gassed with 95% O2 in 5% CO2) in an open system with a constant flow of 4 ml/min maintained with a peristaltic pump. Alterations in perfusion pressure were continuously recorded in a four-channel polygraph (Narco Biosystems, Houston, Tex., USA) by means of a pressure transducer (P23 Gould Stratham, Oxnard, Calif., USA). After a 30 minute equilibration period, phenylephrine (1 to 5 μM) was infused by means of an infusion pump at a constant rate (0.1 ml/min) in order to achieve a stable perfusion pressure (100-120 mm Hg). Dose response curves were performed with vasodilators, i.e. acetylcholine (Ach; 10^-9 to 10^-3 M). Drugs were injected as 50 μL boluses, previously shown not to effect perfusion pressure in a side arm just above the cannula in the mesenteric artery. At least 6 separate experiments were performed each in duplicate.

The test system of series [2] is ROS generated by xanthine/xanthine oxidase. Briefly: Superoxide assay in vitro: xanthine/xanthine oxidase, NBT reduction. The series is classed as biochemical. Particulars: low micromolar concentrations, FIG. 10. The protocol: Superoxide radicals were generated by the reaction of xanthine (1 mM) and xanthine oxidase ([…]) in air-saturated potassium phosphate buffer (pH 7.8 at 25° C.). Superoxide anions were detected by nitroblue tetrazolium (NBT—50 μM) which undergoes reduction by O2-. to its formazan. The rate of reduction was monitored spectrophotometrically at 560 nm with an Ultrospec 1000 (Pharmacia Biotech, Cambridge, England). SOD-1, by scavanging O2-. Diminishes the rate of reduction of NBT. The volume was fixed at 2 mL. Each experiment was run in duplicate.

A further series relates to penile corpus cavernosus. Briefly: Rabbit penile corpus cavernosus: relaxation to electrical field stimulation after 60 min incubation. More on the design: species or system low dose alloxan-diabetic rabbit. Particulars: 1 μM, EFS 2-16 Hz, FIG. 8. The method, then:
Male California rabbits, weighing 2-2.5 kg, were provided by the vivarium of the Biomedicine Institute-UFC. Diabetes was induced by intraperitoneal injection of alloxan (150 mg/kg) and only animals with plasma glucose concentration above 200 mg/dl were included in the study. Age-matched euglycemic rabbits were used as controls.
Kidneys and aortic rings were harvested from diabetic rabbits after 3 weeks of alloxan injection. The animals were sacrificed under sodium pentobarbital anesthesia (Hypnol®, 150-200 mg/kg). […]. Rabbit kidneys were obtained from male New Zealand rabbits (1-1.5 kg) after cannulation of the renal artery in situ. [Thereafter the organ is rapidly perfused with warm KHS at 37° C., pH 7.4 and gassed with 95% O2 in 5% CO2 in an open system with a constant flow adjusted to yield 1 mL/g/min and maintained by a peristaltic pump. The alterations in perfusion pressure are continuously recorded in a four-channel polygraph (Narco Biosystems, Houston, Tex., USA) by means of a pressure transducer (P23 Gould Stratham, Oxnard, Calif., USA). After a 30 minute equilibration period, phenylephrine (1 to 5 μM) is infused by means of an infusion pump at a constant rate (0.1 ml/min) in order to achieve a stable perfusion pressure (100-120 mm Hg). Concentration-response curves are performed to the vasodilators, i.e. acetylcholine (Ach; 10^-9 to 10^-3 M). Drugs are injected as a 50 μL bolus, previously shown not to effect perfusion pressure in an arm side just above the cannula in the renal artery.] Following penectomy, the corpus cavernosum was dissected in Krebs solution and cleared of the tunica albuginea and surrounding tissues. Strips (2 cm) were mounted vertically in isometric baths (5 mL) in Krebs-Henseleit solution (37° C., pH 7.4 gassed with 95% O2 in 5% CO2) enriched with indomethecin (10 μM) and guanethedine (10 μM) in order to avoid prostanoid or neuronal norandrenergic interaction. After a 60 minute period for stabilization, tissues were precontracted with 10 μM phenylephrine in order to increase the basal tonus. Thereafter, frequency response curves to transmural electrical field stimulations (EFS—square wave pulses: 10 s train; 20 V, 0.5 ms, 2-16 Hz) were performed until two stable reproducible curves were attained. Then, frequency response curves were repeated after 60 min incubation with saline or 1 μM pinitol, DCI or db-DCI in the alloxan-diabetic rabbits. They are perfused with KHS containing 1 μM D-chiro-inositol, pinitol, dibutyryl D-chiro-inositol, myo-inositol or saline for 60 min. Dose response curves for acetylcholine are then performed following prior phenylephrine vasoconstriction as described. At least 6 separate experiments were performed each in duplicate.

Regarding `O=P(O)(O)O[C@H]1[C@H](OP(=O)(O)O)[C@@H](OP(=O)(O)O)[C@H](OP(=O)(O)O)[C@@H](OP(=O)(O)O)[C@H]1OP(=O)(O)O` [Phytic acid, Myoinositol hexaphosphate], the “oxidative DNA damage” value in the series with DNA is listed as “does not cause oxidative DNA damage even at high concentrations”.

As for `O[C@H]1[C@H](O)[C@@H](O)[C@H](O)[C@@H](O)[C@H]1O` [myoinositol, reference compound], in series [1], the “peroxidation effect of hydrogen peroxide” value is given as “decrease the peroxidation effect of hydrogen peroxide”. Also, the “effect on macrovascular endothelial dysfunction at intermediate acetylcholine concentration” value with aortic rings was “followed by DCI, pinitol and myoinositol in descending order of effect”; in the series with aortic rings (listed as myo-inositol) it was “active at intermediate acetyl choline concentrations”. Moreover, the “effect on microvascular endothelial dysfunction” value was “perhaps slightly better than pinitol and DCI” in the series on vascular mesenteric bed; “perhaps slightly better than pinitol and D-chiro-inositol” in the series with vascular mesenteric bed (listed as myo-inositol). The figures for the “reduction of ROS generated by xanthine/xanthine oxidase” value in series [2] and in series [2] (listed as myo-inositol) were “reduced ROS in a low micromolar concentration dependant manner” and “equally effective”, respectively.

As for Vitamin A, the “oxidative DNA damage” value with DNA is “cause oxidative DNA damage”.

Turning to `O=c1c(O)c(-c2ccc(O)c(O)c2)oc2cc(O)cc(O)c12` [quercetin], the “oxidative DNA damage” value in the series with DNA is on record as “cause oxidative DNA damage”.

On to `CC(=O)N[C@@H](CS)C(=O)O` [N-acetylcysteine], for which, in the series with DNA, the “oxidative DNA damage” value is “cause oxidative DNA damage”.

Regarding `CO[C@H]1[C@H](O)[C@@H](O)[C@@H](O)[C@H](O)[C@@H]1O` [pinitol], the “effect on macrovascular endothelial dysfunction at intermediate acetylcholine concentration” value in the series on aortic rings is “followed by DCI, pinitol and myoinositol in descending order of effect; also recorded: active at intermediate acetyl choline concentrations”. In addition, the “restoration of vasorelaxant effect of electrical stimulation of the pudendal nerve” value with penile corpus cavernosus was “restoration of vasorelaxant effect”. Further, the “effect on microvascular endothelial dysfunction” value in the series with vascular mesenteric bed is given as “approximately equally effective”. For the same compound, the “reduction of ROS generated by xanthine/xanthine oxidase” value in series [2] is listed as “equally effective; also recorded: reduced ROS in a low micromolar concentration dependant manner”.
